Experimental data as given in patent US8609161B2, “Conglutin-gamma as medicament and diet supplement” (Ospedale San Raffaele S.R.L., priority 2008, dated 2013).
“Also recorded” adds a separate entry of the source.

Experiments:
IRS-1 = IRS-1 protein content, western blot of stimulated C2C12 myotubes; format: cell-based, mouse; conditions: I 100 nM, Cg 0.5 mg/ml, Mf 400 μM; for IRS-1 activation: 30 min
Description: (§1) C2C12 myoblasts were cultured at 37° C. in humidified 5% CO2 atmosphere in a growth medium (GM) containing DMEM supplemented with 20% (v/v) FBS (fetal bovine serum), 1% penicillin-streptomycin and 1% L-glutamine. Cell differentiation was initiated by placing 70% confluent cell cultures in DMEM supplemented with 1% HS (horse serum) and antibiotics (DM). To prepare myotube cultures, myoblasts were cultured in DM for 72 hours. Cells used as control (C) were switched back to GM for the duration of the experiment. Other three groups of cells were replaced in GM with the selective addition respectively of insulin (I; 100 nM), conglutin-γ (Cg; 0.5 mg/ml) and metformin (Mf; 400 μM). For each experimental condition cells were lysed at 0, 5, 10, 20 and 30 minutes after the stimuli addition.
(§2) C2C12 myofibers were homogenized in lysis buffer (50 mM Tris/HCl, pH 7.4, 150 mM NaCl, 1% Triton X-100, 1 mM sodium orthovanadate (Na3VO4), 1 mM EDTA, 1 mM PMSF, 1 mg/ml aprotinin, 1 mg/ml leupeptin, 1 mg/ml pepstatin) and shaked for 1 h at 4° C. Detergent-insoluble material was removed from the cell suspension by centrifugation at 12,000×g for 30 min. Aliquots of 30 µg supernatant proteins from the different samples were resolved by 8% (IRS1, MHC, myogenin and p-CBL), 10% (PI3K p85, AKT1, p-p70 S6K and PKC), 12% (eIF-4E, p-ERK1, p-ERK2, caveolin-3 and flottilin-2) and 15% (PHAS1) SDS-PAGE (Sodium Dodecyl Sulfate—PolyAcrylamide Gel Electrophoresis). Electrophoresed proteins were transferred onto nitrocellulose membranes using a Bio-Rad Mini Trans-Blot system. […]
(§3) The membrane was stripped and re-probed with an antibody to actin or tubulin to confirm equal protein loading per sample. Quantitative measurement of immunoreactive bands was performed by densitometric analysis using the Scion image software (Scion corporation, Frederick, Md., USA).

p85-PI3 kinase = test: PI3K-p85 subunit, western blot of stimulated C2C12 myotubes; format: cell-based, mouse; conditions: I 100 nM, Cg 0.5 mg/ml
Description: as §1
(§4) C2C12 myofibers were homogenized in lysis buffer (50 mM Tris/HCl, pH 7.4, 150 mM NaCl, 1% Triton X-100, 1 mM sodium orthovanadate (Na3VO4), 1 mM EDTA, 1 mM PMSF, 1 mg/ml aprotinin, 1 mg/ml leupeptin, 1 mg/ml pepstatin) and shaked for 1 h at 4° C. […]
as §3

Akt-1 = Akt-1 protein, western blot of stimulated C2C12 myotubes; format: cell-based, mouse
Description: as §1, §2, §3

p70S6K [1] = test: p70S6K phosphorylation, western blot of stimulated C2C12 myotubes; format: cell-based, mouse; conditions: Mf 400 μM; for p70S6K phosphorylation: I 100 nM, Cg 0.5 mg/ml
Description: as §1
C2C12 myofibers were homogenized in lysis buffer (50 mM Tris/HCl, pH 7.4, 150 mM NaCl, 1% Triton X-100, 1 mM sodium orthovanadate (Na3VO4), 1 mM EDTA, 1 mM PMSF, 1 mg/ml aprotinin, 1 mg/ml leupeptin, 1 mg/ml pepstatin) and shaked for 1 h at 4° C. Detergent-insoluble material was removed from the cell suspension by centrifugation at 12,000×g for 30 min. Aliquots of 30 µg supernatant proteins from the different samples were resolved by 8% (IRS1, MHC, myogenin and p-CBL), 10% (PI3K p85, AKT1, p-p70 S6K and PKC), 12% (eIF-4E, p-ERK1, p-ERK2, caveolin-3 and flottilin-2) and 15% (PHAS1) SDS-PAGE (Sodium Dodecyl Sulfate—PolyAcrylamide Gel Electrophoresis). Electrophoresed proteins were transferred onto nitrocellulose membranes using a Bio-Rad Mini Trans-Blot system. The blots were blocked with 50 mg/ml non-fat dry milk in 20 mM Tris/HCl, pH 7.4, 100 mM NaCl for 1 h at room temperature and then incubated overnight at 4° C. with respective primary antibodies in 10 mg/ml non-fat dry milk, 20 mM TRIS/HCl pH 7.4 and 100 mM NaCl and 0.3% Tween 20. After several washes the membranes were incubated with species-specific secondary antibodies. Immunoreactive bands were visualized by an enhanced chemiluminescence method (Amersham Pharmacia Biotech, Piscataway, N.J., USA).
as §3

PHAS-1 = PHAS-1 α and β bands, western blot of stimulated C2C12 myotubes; format: cell-based, mouse; conditions: I 100 nM, Cg 0.5 mg/ml, Mf 400 μM
Description: as §1, §4, §3

eIF4E [2] = test: eIF4E protein, western blot of stimulated C2C12 myotubes; format: cell-based, mouse; conditions: for eIF4E protein concentration increase: I 100 nM
Description: as §1, §2, §3

PKC = PKC protein, western blot of stimulated C2C12 myotubes; format: cell-based, mouse
Description: as §1, §4, §3

flottilin-2 = flottilin-2 protein, western blot of stimulated C2C12 myotubes; format: cell-based, mouse
Description: as §1, §4, §3

caveolin-3 = caveolin-3 protein, western blot of stimulated C2C12 myotubes; format: cell-based, mouse; conditions: 30 min / toward the end of the experiment; I 100 nM, Mf 400 μM
Description: as §1, §4, §3

Cbl = Cbl phosphorylation, western blot of stimulated C2C12 myotubes; format: cell-based, mouse; conditions: 30 min; I 100 nM
Description: as §1, §4, §3

ERK1 = test: ERK-1 phosphorylation, western blot of stimulated C2C12 myotubes; format: cell-based, mouse
Description: as §1, §4, §3

ERK2 = test: ERK-2 phosphorylation, western blot of stimulated C2C12 myotubes; format: cell-based, mouse
Description: as §1, §2, §3

MHC = MHC gene expression (protein content), western blot of stimulated C2C12 myotubes; format: cell-based, mouse; conditions: Cg 0.5 mg/ml
Description: as §1, §4, §3

myogenin = myogenin content, western blot of stimulated C2C12 myotubes; format: cell-based, mouse; conditions: I 100 nM, Cg 0.5 mg/ml, Mf 400 μM
Description: as §1, §4, §3

C2C12 myoblasts = test: Immunofluorescence of MHC-positive myotubes (differentiation, hypertrophy); format: cell-based, mouse; conditions: vs un-stimulated differentiated muscle cells; I 100 nM, Cg 0.5 mg/ml, Mf 400 μM
Description: To prepare myotube cultures, myoblasts were cultured in DM for 72 hours. Cells used as control (C) were switched back to GM for the duration of the experiment. […] For each experimental condition cells were lysed at 0, 5, 10, 20 and 30 minutes after the stimuli addition. For immunofluorescence analysis C2C12 myoblasts differentiated as above were stimulated with insulin, conglutin-γ and metformin for 30 minutes. In differentiated cells immunostained with anti-MHC the DAPI stained nuclei per myotube, myotubes length and diameter were determined and expressed as average.

[3] = Intraperitoneal glucose tolerance test (IPGTT), blood glucose; format: in vivo, C57B1/6 wild type mice
Description: (§5) For this protocol C57B1/6 wild type mice were utilized. Intraperitoneal glucose tolerance test (IPGTT) was performed by injecting glucose (2 g/kg body weight) i.p. in three groups of overnight-fasted mice. Thirty minutes before glucose administration, conglutin-gamma (120 mg/kg b.w.) was injected i.p. in the “Conglutin” group of mice. In the “Insulin” group of mice, insulin (0.5 U/kg b.w.) was administered i.p. at the same time of glucose injection (time 0). Blood glucose levels were determined prior (30 and 0 minutes) to injection and 30, 60, 90, and 120 min after injection. Blood samples were obtained from the tail vein and plasmas used to measure glucose concentration by the glucose reflectometer. At the end of the study gastrocnemius muscle was taken. A group of overnight-fasted mice (basal) was sacrificed before the study and gastrocnemius muscle taken. A group of animals that received saline instead of insulin or conglutin-gamma, was used as control (saline).

[4] = test system: insulin receptor beta (IR-beta); test: IR-beta protein content in gastrocnemius muscle at end of IPGTT; format: in vivo, mouse; conditions: 120 min, with respect to the basal and saline group; conglutin-gamma 120 mg/kg i.p., insulin 0.5 U/kg i.p.
Description: as §5
(§6) Collected gastrocnemius muscle was frozen in liquid nitrogen immediately after excision and then stored at −80° C. A gram of tissue with 1.5 ml of ice cold RIPA buffer was disrupted and homogenized with a dounce homogenizer, maintaining temperature at 4° C. throughout all procedures, then incubated on ice for 30 minutes. The homogenate was transferred to microcentrifuge tubes, centrifugated at 10,000×g for 10 minutes at 4° C. […]

AKT1 = AKT1 protein expression in gastrocnemius muscle at end of IPGTT; format: in vivo, mouse; conditions: 120 min, with respect to the untreated muscle; conglutin-gamma 120 mg/kg i.p., insulin 0.5 U/kg i.p.
Description: as §5, §6

GSK-3 = GSK-3 in gastrocnemius muscle at end of IPGTT; format: in vivo, mouse; conditions: 120 min; conglutin-gamma 120 mg/kg i.p., insulin 0.5 U/kg i.p.
Description: as §5, §6

p70S6K [5] = test: p70S6k phosphorylation in gastrocnemius muscle at end of IPGTT; format: in vivo, mouse; conditions: 120 min; conglutin-gamma 120 mg/kg i.p., insulin 0.5 U/kg i.p.
Description: as §5, §6

ERK1 and ERK2 = ERK1 and ERK2 phosphorylation in gastrocnemius muscle at end of IPGTT; format: in vivo, mouse; conditions: 120 min; conglutin-gamma 120 mg/kg i.p., insulin 0.5 U/kg i.p.
Description: as §5, §6

eIF4E [6] = test: eIF4E protein in gastrocnemius muscle at end of IPGTT; format: in vivo, mouse; conditions: 120 min; conglutin-gamma 120 mg/kg i.p., insulin 0.5 U/kg i.p.
Description: as §5, §6

[7] = Mf 400 μM vs insulin and conglutin-γ

Compound: insulin: primary hormone responsible for proteosynthesis control and glucose homeostasis; comparator stimulus
- IRS-1 protein content stimulation / activation (IRS-1; 20 min): ~32%
- IRS-1 activation (IRS-1): ~35%
- p85-PI3 kinase activation (p85-PI3 kinase; 30 min (end of the experiment)): ~56%
- p85-PI3 kinase activation (p85-PI3 kinase; within 5 min): ~62%
- Akt-1 protein concentration change (Akt-1; 20 min, I 100 nM, Cg 0.5 mg/ml, Mf 400 μM): ~13%
- AKT-1 phosphorylation, in words (Akt-1; any time 5-30 min, I 100 nM, Cg 0.5 mg/ml): modest stimulation above basal at any time
- p70S6K phosphorylation (p70S6K [1]; 30 min): ~94%
- p70S6K phosphorylation (p70S6K [1]; within 5 min): ~40%
- density of PHAS-1 α and β bands in respect to the control (PHAS-1): more increased
- eIF4E protein concentration increase (eIF4E [2]; 30 min (end of the experiment), Cg 0.5 mg/ml): ~30%
- eIF4E protein concentration increase (eIF4E [2]; persistent from 5 to 20 min): ~45%
- PKC concentration increase (PKC; 20 min, I 100 nM, Cg 0.5 mg/ml): ~32%
- flottilin-2 protein concentration increase (peak) (flottilin-2; 10 min, I 100 nM, Cg 0.5 mg/ml): ~60%
- caveolin-3 protein concentration increase (caveolin-3): ~34%
- Cbl phosphorylation (maximal) (Cbl): ~56%
- ERK1 activation (peak) (ERK1; 20 min, I 100 nM, Cg 0.5 mg/ml): ~27%
- ERK2 activation (ERK2; 10 min, I 100 nM): ~20%
- ERK2 activation (maximum) (ERK2; 30 min, I 100 nM, Cg 0.5 mg/ml): ~28%
- MHC expression increase (MHC; with respect to the un-stimulated differentiated muscle cells, I 100 nM): ~600%
- myogenin activation (myogenin): overlapping
- fusion index (C2C12 myoblasts): gradually increase
- myotubes diameter (C2C12 myoblasts): gradually increase
- myotubes length (C2C12 myoblasts): gradually increase
- number of nuclei present in MHC positive myotubes (C2C12 myoblasts): gradually increase
- blood glucose concentration at the end of the study ([3]; 120 min after glucose 2 g/kg i.p., conglutin-gamma 120 mg/kg i.p. at -30 min, insulin 0.5 U/kg i.p. at time 0): ~120 mg/dL
- course of blood glucose decrease during IPGTT ([3]; glucose 2 g/kg i.p., conglutin-gamma 120 mg/kg i.p., insulin 0.5 U/kg i.p.): decreased rapidly
- IR-beta protein content in muscle [4]: trend towards IR-beta protein content increment
- AKT1 expression in muscle (AKT1): able to increase AKT1 expression
- GSK-3 phosphorylation in muscle (GSK-3): increased
- p70S6k phosphorylation in muscle (p70S6K [5]): increased
- ERKs phosphorylation in muscle (ERK1 and ERK2): able to increment
- eIF4E activation in muscle (eIF4E [6]): able to increment

Compound: CN(C)C(=N)N=C(N)N [metformin, Metformin]
- IRS-1 activation (IRS-1): ~76%
- Emax (Akt-1; Mus musculus, C2C12, 5 min, 5 min, Mf 400 μM, read-out: Akt-1 protein concentration change (maximal effect)): ~20%
- p70S6K phosphorylation (p70S6K [1]; 30 min): ~32%
- Emax (p70S6K [1]; Mus musculus, C2C12, 10 min, within 10 min, read-out: p70S6K phosphorylation (maximal effect)): ~46%
- density of PHAS-1 α and β bands in respect to the control (PHAS-1): more increased
- eIF4E activation, in words (eIF4E [2]; Mf 400 μM): not able to exert an activation
- PKC protein concentration stimulation, in words (PKC; [7]): more than the other two stimuli
- flottilin-2 activation, in words (flottilin-2; Mf 400 μM): did not exert any flottilin-2 activation
- caveolin-3 protein concentration increase (caveolin-3): above 70%
- ERK1 activation, in words (ERK1; [7]): higher activation
- ERK2 activation, in words (ERK2; [7]): higher activation
- MHC gene expression, in words (MHC; with respect to un-stimulated differentiated muscle cells, Mf 400 μM): unable to produce the same effect; also recorded: not able to induce the same gene expression
- myogenin activation (myogenin): did not exert any effect
- fusion index (C2C12 myoblasts): gradually increase
- myotubes diameter (C2C12 myoblasts): gradually increase
- myotubes length (C2C12 myoblasts): gradually increase
- number of nuclei present in MHC positive myotubes (C2C12 myoblasts): gradually increase
